{"source": "patent US8822449B2", "about": "“Substituted aminoindanes and analogs thereof, and the pharmaceutical use thereof” (Sanofi, priority 2008, dated 2014)"}
{"target": "T1, sodium-proton exchanger of subtype 3 (NHE3) (Homo sapiens, UniProt P48764)", "T1 construct": "expressed in transfected cells", "T1 sequence (P48764 26-834)": "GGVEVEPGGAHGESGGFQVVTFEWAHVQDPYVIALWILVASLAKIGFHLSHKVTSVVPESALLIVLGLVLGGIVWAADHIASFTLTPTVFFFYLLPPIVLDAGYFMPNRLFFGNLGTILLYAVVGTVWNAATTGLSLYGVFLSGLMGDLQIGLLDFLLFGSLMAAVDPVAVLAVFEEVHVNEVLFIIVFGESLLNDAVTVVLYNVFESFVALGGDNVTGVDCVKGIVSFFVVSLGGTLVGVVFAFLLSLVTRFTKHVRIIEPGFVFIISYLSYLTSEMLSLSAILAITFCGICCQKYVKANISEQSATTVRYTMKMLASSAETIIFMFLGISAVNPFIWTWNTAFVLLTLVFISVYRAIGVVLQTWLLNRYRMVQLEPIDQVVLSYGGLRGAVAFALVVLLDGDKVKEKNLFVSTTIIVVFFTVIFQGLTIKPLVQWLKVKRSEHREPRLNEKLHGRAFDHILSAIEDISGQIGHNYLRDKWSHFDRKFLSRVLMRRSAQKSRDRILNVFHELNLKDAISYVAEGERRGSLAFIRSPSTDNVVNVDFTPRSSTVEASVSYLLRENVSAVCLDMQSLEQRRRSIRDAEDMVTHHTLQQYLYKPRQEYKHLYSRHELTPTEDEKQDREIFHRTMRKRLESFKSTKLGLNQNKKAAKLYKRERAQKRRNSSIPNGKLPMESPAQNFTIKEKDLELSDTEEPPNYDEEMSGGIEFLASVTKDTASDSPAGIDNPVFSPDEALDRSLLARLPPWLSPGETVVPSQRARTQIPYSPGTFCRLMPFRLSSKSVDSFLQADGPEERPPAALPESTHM", "assay": "Recovery of intracellular pH (pHi) after acidification in LAP1 cells stably expressing NHE3 (BCECF fluorescence, FLIPR)", "type": "cell-based", "conditions": "LAP1 cells stably expressing NHE3; pH recovery after acidification; range 1 is % inhibition at 10 μM; read-out: Activity range (inhibitory effect on NHE3)", "units": {"IC50": "nM", "inhibition at 10 µM": "%"}, "procedure": "In this assay, the recovery of the intracellular pH (pHi) of LAP1 cells which stably express the sodium-proton exchanger of subtype 3 (NHE3) after acidification was determined. The recovery occurs even under bicarbonate-free conditions with functional NHE3. To this end, the pHi was determined using the pH-sensitive fluorescent dye BCECF (Molecular Probes, Eugene, Oreg., USA, employing the precursors BCECF-AM). The cells were initially incubated with BCECF (5 μM BCECF-AM) in NH4Cl buffer (NH4Cl buffer: 115 mM cholineCl, 20 mM NH4Cl, 5 mM KCl, 1 mM CaCl2, 1 mM MgCl2, 20 mM Hepes, 5 mM glucose, a pH of 7.4 was adjusted with 1 M KOH). The intracellular acidification was induced by washing the cells incubated in NH4Cl buffer with NH4Cl-free buffer (133.8 mM choline chloride, 4.7 mM KCl, 1.25 mM CaCl2, 1.25 mM MgCl2, 0.97 mM K2HPO4, 0.23 mM KH2PO4, 5 mM Hepes, 5 mM glucose, a pH of 7.4 was adjusted with 1 M KOH). After the washing step, 90 μl of the NH4Cl-free buffer were left on the cells. The pH recovery was started by adding 90 μl of Na^+-containing buffer (133.8 mM NaCl, 4.7 mM KCl, 1.25 mM CaCl2, 1.25 mM MgCl2, 0.97 mM Na2HPO4, 0.23 mM NaH2PO4, 10 mM Hepes, 5 mM glucose, a pH of 7.4 was adjusted with 1 M NaOH) in a measuring instrument (FLIPR, “Fluorometric Imaging Plate Reader”, Molecular Devices, Sunnyvale, Calif., USA). The BCECF fluorescence was determined with an excitation wavelength of 498 nm and the FLIPR emission filter 1 (bandpass from 510 to 570 nm). The subsequent changes in fluorescence as a measure of pH recovery were recorded for two minutes. To calculate the NHE3-inhibitory power of the tested substances, the cells were initially investigated in buffers with which complete or absolutely no pH recovery took place. For complete pH recovery (100%), the cells were incubated in Na^+-containing buffer (see above), and to determine the 0% value were incubated in Na^+-free buffer (see above). The substances to be tested were made up in Na^+-containing buffer. The recovery of the intracellular pH at each tested concentration of a substance was expressed as percent of the maximum recovery.\nThe IC50 of the respective substance for NHE3 was calculated from the percentages of pH recovery using the program XLFit (idbs, Surrey, UK)."}
{"smiles": "Cc1nnc(C)n1-c1ccc(O[C@H]2c3cc(Cl)ccc3C[C@@H]2N2CC[C@@H](O)C2)c(F)c1", "note": "[Example 143, (R)-1-{trans-(1S,2S)-6-chloro-1-[4-(3,5-dimethyl-[1,2,4]triazol-4-yl)-2-fluorophenoxy]indan-2-yl}pyrrolidin-3-ol]", "IC50": "< 1000"}
{"smiles": "CN1CCCN([C@H]2Cc3c(Cl)cc(Cl)cc3[C@@H]2Oc2ccc(S(C)(=O)=O)cc2)CC1", "note": "[Example 305, 1-[trans-(1S,2S)-4,6-dichloro-1-(4-methanesulfonylphenoxy)indan-2-yl]-4-methyl-[1,4]diazepane]", "IC50": "< 1000"}
{"smiles": "O=C1CCC(=O)N1c1ccc(O[C@H]2c3cc(Cl)cc(F)c3C[C@@H]2NC2CCCC2)c(F)c1", "note": "[Example 752, 1-[4-(trans-(1S,2S)-6-Chloro-2-cyclopentylamino-4-fluoro-indan-1-yloxy)-3-fluoro-phenyl]-pyrrolidine-2,5-dione]", "IC50": "1000 to 10000"}
{"smiles": "N[C@H]1CCCN([C@H]2CCc3ccccc3[C@@H]2Oc2cccc(F)c2)C1", "note": "(racemic) [Example 168, (S)-1-[rac-trans-(1,2)-1-(3-fluorophenoxy)-1,2,3,4-tetrahydronaphthalen-2-yl]piperidin-3-ylamine]", "inhibition at 10 µM": "20 to 50"}
{"smiles": "CS(=O)(=O)c1ccc(O[C@H]2c3cc(Cl)cc(Cl)c3C[C@@H]2N2CCC[C@@H](NCCF)C2)cc1", "note": "[Example 222, {(R)-1-[trans-(1S,2S)-4,6-dichloro-1-(4-methanesulfonylphenoxy)indan-2-yl]piperidin-3-yl}-(2-fluoroethyl)amine]", "IC50": "< 1000"}
{"smiles": "CC(=O)Nc1cccc(O[C@H]2c3cc(Cl)cc(Cl)c3C[C@@H]2N(C)C)c1", "note": "(racemic) [Example 645, N-[3-(rac-trans-(1,2)-4,6-dichloro-2-dimethylaminoindan-1-yloxy)phenyl]acetamide]", "IC50": "1000 to 10000"}
{"smiles": "NS(=O)(=O)c1ccc(O[C@H]2c3cc(F)ccc3C[C@@H]2N2CCCC2)cc1", "note": "(racemic) [Example 474, 4-(rac-trans-(1,2)-6-fluoro-2-pyrrolidin-1-ylindan-1-yloxy)benzenesulfonamide]", "IC50": "1000 to 10000"}
{"smiles": "CN1CCN(C(=O)c2ccc(O[C@H]3c4ccccc4C[C@@H]3N3CCCC3)cc2)CC1", "note": "(racemic) [Example 22, (4-methylpiperazin-1-yl)-[4-(rac-trans-(1,2)-2-pyrrolidin-1-ylindan-1-yloxy)phenyl]methanone]", "IC50": "1000 to 10000"}
{"smiles": "Cc1ccc(O[C@H]2c3ccccc3CC[C@@H]2N2CCC[C@H](N)C2)c(Cl)c1", "note": "(racemic) [Example 152, (S)-1-[rac-trans-(1,2)-1-(2-chloro-4-methylphenoxy)-1,2,3,4-tetrahydronaphthalen-2-yl]piperidin-3-ylamine]", "inhibition at 10 µM": "20 to 50"}
{"smiles": "CCN(CC)[C@@H]1Cc2ccccc2[C@H]1Oc1ccc2c(c1)C(C)C(=O)N2C", "note": "(mixture of isomers) [Example 568, 5-(rac-trans-(1,2)-2-diethylaminoindan-1-yloxy)-1,3-dimethyl-1,3-dihydroindol-2-one]", "IC50": "1000 to 10000"}
{"smiles": "CCn1c(C)nn(-c2ccc(O[C@H]3c4cc(Cl)cc(Cl)c4C[C@@H]3N3CC[C@@H](O)C3)cc2)c1=O", "note": "[Example 737, 2-{4-[trans-(1S,2S)-4,6-Dichloro-2-((R)-3-hydroxy-pyrrolidin-1-yl)-indan-1-yloxy]-phenyl}-4-ethyl-5-methyl-2,4-dihydro-[1,2,4]triazol-3-one]", "IC50": "1000 to 10000"}
{"smiles": "Cc1nnc(C)n1-c1ccc(O[C@H]2c3cc(Cl)ccc3C[C@@H]2N2CCOCC2)c(Cl)c1", "note": "[Example 566, 4-{trans-(1S,2S)-6-chloro-1-[2-chloro-4-(3,5-dimethyl-[1,2,4]triazol-4-yl)phenoxy]indan-2-yl}morpholine]", "IC50": "< 1000"}
{"smiles": "N[C@@H]1CCCN([C@H]2CCc3ccccc3[C@@H]2Oc2ccc(F)c3cccnc23)C1", "note": "(racemic) [Example 79, (R)-1-[rac-trans-(1,2)-1-(5-fluoroquinolin-8-yloxy)-1,2,3,4-tetrahydronaphthalen-2-yl]piperidin-3-ylamine]", "IC50": "< 1000"}
{"smiles": "N[C@H]1CCCN([C@H]2CCc3ccccc3[C@@H]2Oc2ccc(F)cc2)C1", "note": "(racemic) [Example 179, (S)-1-[rac-trans-(1,2)-1-(4-fluorophenoxy)-1,2,3,4-tetrahydronaphthalen-2-yl]piperidin-3-ylamine]", "inhibition at 10 µM": "20 to 50"}
{"smiles": "NS(=O)(=O)c1ccc(O[C@H]2c3ccccc3C[C@@H]2N2CCCC(O)C2)c(Cl)c1Cl", "note": "(mixture of isomers) [Example 361, 2,3-dichloro-4-[trans-(1S,2S)-2-(3-hydroxy-piperidin-1-yl)indan-1-yloxy]benzenesulfonamide]", "IC50": "1000 to 10000"}
{"smiles": "CN(C)CCCN(C)[C@H]1Cc2ccccc2[C@@H]1Oc1ccc(S(C)(=O)=O)cc1", "note": "(racemic) [Example 669, N-[rac-trans-(1,2)-1-(4-methanesulfonylphenoxy)indan-2-yl]-N,N′,N′-trimethylpropane-1,3-diamine]", "IC50": "1000 to 10000"}
{"smiles": "c1ccc2c(c1)C[C@@H](N1C[C@H]3CNC[C@H]3C1)[C@@H]2Oc1ccc2cc[nH]c2c1", "note": "(racemic) [Example 587, 6-[rac-trans-(1,2)-2-(Hexahydropyrrolo[3,4-c]pyrrol-2-yl)indan-1-yloxy]-1H-indole]", "IC50": "1000 to 10000"}
{"smiles": "CS(=O)(=O)c1ccc(O[C@H]2c3ccccc3C[C@@H]2NCC2CCCC2)cc1", "note": "(racemic) [Example 705, Cyclopentylmethyl-[rac-trans-(1,2)-1-(4-methanesulfonyl-phenoxy)-indan-2-yl]-amine]", "IC50": "1000 to 10000"}
{"smiles": "CS(=O)(=O)c1ccc(O[C@H]2c3cc(Cl)cc(Cl)c3C[C@@H]2N2CC[C@@H](N3CCCC3)C2)cc1", "note": "[Example 99, (R)-1′-[trans-(1S,2S)-4,6-dichloro-1-(4-methanesulfonylphenoxy)indan-2-yl]-[1,3′]bipyrrolidinyl]", "IC50": "< 1000"}
{"smiles": "CC(=O)Nc1cccc(O[C@@H]2c3ccccc3C[C@H]2N2CCC(CN)CC2)c1", "note": "(racemic) [Example 688, N-{3-[rac-trans-(1,2)-2-(4-aminomethylpiperidin-1-yl)indan-1-yloxy]phenyl}acetamide]", "IC50": "1000 to 10000"}
{"smiles": "CC(=O)Nc1cccc(O[C@@H]2c3ccccc3C[C@H]2N2CCC[C@H](N)C2)c1", "note": "(racemic) [Example 685, N-{3-[rac-trans-(1,2)-2-((S)-3-aminopiperidin-1-yl)indan-1-yloxy]phenyl}acetamide]", "IC50": "1000 to 10000"}
{"smiles": "NCC1CCN([C@@H]2Cc3ccccc3[C@H]2Oc2cccc(N3CCNCC3)c2)CC1", "note": "(racemic) [Example 616, C-{1-[rac-trans-(1,2)-1-(3-piperazin-1-ylphenoxy)indan-2-yl]piperidin-4-yl}methylamine]", "IC50": "1000 to 10000"}
{"smiles": "N[C@H]1CCCN([C@H]2CCc3ccccc3[C@@H]2Oc2ccc(C(F)(F)F)cc2)C1", "note": "(racemic) [Example 186, (S)-1-[rac-trans-(1,2)-1-(4-trifluoromethylphenoxy)-1,2,3,4-tetrahydronaphthalen-2-yl]piperidin-3-ylamine]", "inhibition at 10 µM": "20 to 50"}
{"smiles": "N[C@@H]1CCCN([C@@H]2Cc3ccccc3[C@H]2Oc2ccc(Br)cc2-c2cc[nH]n2)C1", "note": "(racemic) [Example 118, (R)-1-{rac-trans-(1,2)-1-[4-bromo-2-(1H-pyrazol-3-yl)phenoxy]indan-2-yl}piperidin-3-ylamine]", "IC50": "1000 to 10000"}
{"smiles": "Cc1nnc(C)n1-c1ccc(O[C@H]2c3cc(Cl)cc(F)c3C[C@@H]2N2CC[C@@H](O)C2)cc1", "note": "[Example 144, (R)-1-{trans-(1S,2S)-6-chloro-1-[4-(3,5-dimethyl-[1,2,4]triazol-4-yl)phenoxy]-4-fluoroindan-2-yl}pyrrolidin-3-ol]", "IC50": "< 1000"}
{"smiles": "N[C@@H]1CCCN([C@H]2CCc3ccccc3[C@@H]2Oc2ccc(NC(=O)OCc3ccccc3)cc2)C1", "note": "(racemic) [Example 237, {4-[rac-trans-(1,2)-2-((R)-3-aminopiperidin-1-yl)-1,2,3,4-tetrahydronaphthalen-1-yloxy]phenyl}carbamic acid benzyl ester]", "inhibition at 10 µM": "20 to 50"}
{"smiles": "Nc1ccc2c(O[C@H]3c4ccccc4CC[C@@H]3N3CCOCC3)cccc2c1", "note": "(racemic) [Example 569, 5-(rac-trans-(1,2)-2-morpholin-4-yl-1,2,3,4-tetrahydronaphthalen-1-yloxy)naphthalen-2-ylamine]", "inhibition at 10 µM": "20 to 50"}
{"smiles": "CS(=O)(=O)c1ccc(O[C@H]2c3ccccc3C[C@@H]2N2CCCC2)cc1", "note": "(racemic) [Example 273, 1-[rac-trans-(1,2)-1-(4-methanesulfonylphenoxy)indan-2-yl]pyrrolidine]", "IC50": "< 1000"}
{"smiles": "CN(C)S(=O)(=O)c1ccc(N[C@H]2c3cc(Cl)cc(Cl)c3C[C@@H]2N2CC[C@@H](O)C2)cc1", "note": "[Example 481, 4-[(1S,2S)-4,6-dichloro-2-((R)-3-hydroxypyrrolidin-1-yl)indan-1-ylamino]-N,N-dimethylbenzenesulfonamide]", "IC50": "1000 to 10000"}
{"smiles": "N#Cc1ccc(O[C@@H]2c3ccccc3C[C@H]2N2CCC(CN)C2)cc1Cl", "note": "(mixture of isomers) [Example 540, 4-[rac-trans-(1,2)-2-(3-aminomethylpyrrolidin-1-yl)indan-1-yloxy]-2-chlorobenzonitrile]", "IC50": "1000 to 10000"}
